According to patent US8653046B2, “Controlling transgene expression across the skin” (ETH Zurich, priority 2009, dated 2014):

How the values were obtained:
[1] = system: macrolide-responsive control system (ET1, E-VP16; PETR3-SAMY-pA); assay: Compatibility test: macrolide-responsive (EOFF) SAMY production in CHO-PEACE8 (pWW35, pBP100); format: cell-based; details: CHO-PEACE8 transiently transfected with macrolide-responsive control system; Phl 50 μM, EM 2 μg/mL; 48 h; 100 = no inducer
Description: (§1) To evaluate the functional compatibility of PEACE with the established tetracycline— [TETOFF; Gossen M., Bujard H., 1992, Proc Natl Acad Sci USA 89(12):5547-5551] and macrolide— [EOFF; Weber W., et al., 2002, Nat Biotechnol 20(9):901-907] responsive expression circuits CHO-PEACE8 is transiently transfected, transgenic for phloretin-responsive SEAP expression, with either the TETOFF-(pSAM200, PSV40-tTA-pA; pBP99, PhCMV*-1-SAMY-pA) or the EOFF-(PWW35, PSV40-ET1-pA; pBP100, PETR3-SAMY-pA) system set to control the Bacillus stearothermophilus-derived secreted α-amylase (SAMY) in response to tetracycline and erythromycin, respectively. SEAP and SAMY expression are scored 48 h after cultivation of the transfected populations in the presence (50 μM; 2 μg/mL) or absence of the inducer molecules (phloretin, tetracycline, erythromycin).

[2] = target: T1, TtgA1 (TtgR-VP16) (Pseudomonas putida, UniProt Q9AIU0); assay: Compatibility test: phloretin-responsive SEAP production of CHO-PEACE8; format: cell-based, Pseudomonas putida DOT-T1E; parameters: expressed in transfected cells; host or cells: CHO-K1 (transient pMG11 or pMG13); also HEK-293, BHK-21, COS-7, HaCaT, HT-1080, NIH/3T3, primary human fibroblasts and keratinocytes; details: Phl 50 μM, 48 h, 100 = no inducer
Description: as §1
The stable CHO-PEACE8 cell line, transgenic for phloretin-controlled SEAP expression, is constructed in two steps: (i) CHO-K1 cells are co-transfected with pMG11 (PSV40-TtgA1-pA) and pSV2neo (Clontech, Cat. No. 6172-1) at a ratio of 20:1 and clonal selection results in the cell line CHO-TtgA. (ii) CHO-TtgA is co-transfected with pMG10 (PTtgR1-SEAP-pA) and pPur (Clontech, Cat. No. 6156-1) (ratio of 20:1) and the phloretin-responsive SEAP-producing double-transgenic cell line CHO-PEACE8 is chosen after clonal selection. […] Reversibility of phloretin-mediated SEAP production is assessed by cultivating CHO-PEACE8 (100,000 cells/mL) for 144 h while alternating phloretin concentrations from 0 to 50 μM every 48 h.

[3] = target: T2, tetracycline-responsive control system (PSV40-tTA-pA; PhCMV*-1-SAMY-pA) (Escherichia coli, UniProt P04483); assay: Compatibility test: tetracycline-responsive (TETOFF) SAMY production in CHO-PEACE8 (pSAM200, pBP99); format: cell-based; details: CHO-PEACE8 transiently transfected with tetracycline-responsive control system; Phl 50 μM, Tet 2 μg/mL; 48 h; 100 = no inducer
T2 construct: expressed in transfected cells; host or cells: CHO-PEACE8 transiently transfected with pSAM200 and pBP99
Description: as §1

[4] = target: T1, TtgA1 (TtgR-VP16); assay: PEACE: SEAP expression after transient co-transfection of pMG10 (PTtgR1-SEAP-pA) and pMG11 (PSV40-TtgA1-pA); format: cell-based; details: CHO-K1, 0, 25, 50 μM, 48 h
Description: Living in the plant rhizosphere, Pseudomonas putida DOT-T1E has evolved resistance to a variety of plant-derived antimicrobials, which is triggered by phloretin-induced release of TtgR protein from the operator (OTtgR) of its target promoter and subsequent induction of a broadly specific TtgABC efflux pump (Teran W. et al., loc. cit.).
Three different transactivators are designed, harboring either the VP16 (TtgA1; pMG11, TtgR-VP16) (Triezenberg S. J. et al., loc. cit.), the p65 (TtgA2; pMG18, TtgR-p65) (Urlinger S., et al., 2000, Gene 247(1-2):103-110) or the human E2F4 (TtgA3; pMG19, TtgR-E2F4) (Akagi K., Kanai M., Saya H., Kozu T., Berns A., 2001, Nucleic Acids Res 29(4):e23) transactivation domains. pMG11, pMG18 or pMG19 are co-transfected with pMG10 (PTtgR1-SEAP-pA) into CHO-K1, HEK-293 as well as primary human fibroblasts and keratinocytes, and SEAP expression is profiled after 48 h of cultivation in the presence or absence of 50 μM phloretin.
(§2) CHO-K1 are transiently (co-)transfected with either pMG10 (PTtgR1-SEAP-pA) and pMG11 (PSV40-TtgA1-pA), to score regulation performance, or with pSEAP2-Control (PSV40-SEAP-pA), to assess compound-related cytotoxicity, and then cultivated for 48 h in medium containing different concentrations (0, 25, 50 μM) of specific flavonoid type compounds (berberine, butylparaben, genistein, luteolin, β-naphthol, naringenin, phloretin, phloridzin or quercetin) before SEAP production is profiled (FIG. 5A).
Wild-type Chinese hamster ovary cells (CHO-K1, ATCC: CCL-61) and their derivatives are cultivated in standard medium: ChoMaster® HTS (Cell Culture Technologies, Gravesano, Switzerland) supplemented with 5% (v/v) fetal calf serum (FCS, PAN Biotech GmbH, Aidenbach, Germany, Cat. No. 3302, Lot No. P251110) and 1% (v/v) penicillin/streptomycin solution (Sigma, St Louis, Mo., USA, Cat. No. P4458). Human embryonic kidney cells (HEK-293, Mitta B., et al., 2002, Nucleic Acids Res 30(21):e113), African green monkey kidney cells (COS-7, ATCC: CRL-1651), baby hamster kidney cells (BHK-21, ATCC: CCL10), human fibrosarcoma cells (HT-1080, ATCC: CCL-121), the human keratinocyte cell line HaCaT (Boukamp P., et al., 1988, J Cell Biol 106(3):761-771) and mouse fibroblasts (NIH/3T3, ATCC: CRL-1658) are cultured in Dulbecco's modified Eagle's medium (DMEM; Invitrogen, Cat. No. 52100-39) supplemented with 10% FCS (v/v) and 1% (v/v) penicillin/streptomycin solution. Primary human foreskin fibroblasts are cultivated in DMEM supplemented with 20% FCS (v/v) and 1% (v/v) penicillin/streptomycin solution and primary human foreskin keratinocytes are cultured in chemically defined serum-free keratinocyte medium (Invitrogen, Cat. No. 10744019). All cell types are cultivated at 37° C. in a 5% CO2-containing humidified atmosphere.

[5] = system: CHO-K1; assay: Toxicity of flavonoids: CHO-K1 transiently transfected with pSEAP2-Control, SEAP levels after 48 h; details: 0, 25, 50 μM, genistein cytotoxic only at 50 μM
Procedure: (A) Toxicity of flavonoids. CHO-K1 are transiently transfected with pSEAP2-Control, and cultivated in medium supplemented with different flavonoids (0, 25, 50 μM). SEAP levels are scored after 48 h.
as §2
Wild-type Chinese hamster ovary cells (CHO-K1, ATCC: CCL-61) and their derivatives are cultivated in standard medium: ChoMaster® HTS (Cell Culture Technologies, Gravesano, Switzerland) supplemented with 5% (v/v) fetal calf serum (FCS, PAN Biotech GmbH, Aidenbach, Germany, Cat. No. 3302, Lot No. P251110) and 1% (v/v) penicillin/streptomycin solution (Sigma, St Louis, Mo., USA, Cat. No. P4458). Human embryonic kidney cells (HEK-293, Mitta B., et al., 2002, Nucleic Acids Res 30(21):e113), African green monkey kidney cells (COS-7, ATCC: CRL-1651), baby hamster kidney cells (BHK-21, ATCC: CCL10), human fibrosarcoma cells (HT-1080, ATCC: CCL-121), the human keratinocyte cell line HaCaT (Boukamp P., et al., 1988, J Cell Biol 106(3):761-771) and mouse fibroblasts (NIH/3T3, ATCC: CRL-1658) are cultured in Dulbecco's modified Eagle's medium (DMEM; Invitrogen, Cat. No. 52100-39) supplemented with 10% FCS (v/v) and 1% (v/v) penicillin/streptomycin solution. Primary human foreskin fibroblasts are cultivated in DMEM supplemented with 20% FCS (v/v) and 1% (v/v) penicillin/streptomycin solution and primary human foreskin keratinocytes are cultured in chemically defined serum-free keratinocyte medium (Invitrogen, Cat. No. 10744019). All cell types are cultivated at 37° C. in a 5% CO2-containing humidified atmosphere. For transient transfection of CHO-K1, 1 μg of total plasmid DNA (for co-transfection an equal amount of each plasmid) is transfected into 50,000 cells per well of a 24-well plate according to an optimized calcium phosphate protocol (Greber D., Fussenegger M., 2007, Biotechnol Bioeng 96(5):821-834). Plasmid DNA is diluted to a total volume of 25 μL 0.5 M CaCl2 solution, which is mixed with 25 μL 2×HBS solution (50 mM HEPES, 280 mM NaCl, 1.5 mM Na2HPO4, pH 7.1). After incubation for 15 min at room temperature, the precipitates are immediately added to the well and centrifuged onto the cells (5 min at 1,200×g) to increase transfection efficiency. After 3 h, the cells are treated with 0.5 mL glycerol solution (ChoMaster® HTS medium containing 15% glycerol) for 60 sec. After washing once with phosphate-buffered saline (PBS, Dulbecco's Phosphate-Buffered Saline; Invitrogen, Cat. No. 21600-0069), cells are cultivated in 0.5 mL standard ChoMaster® HTS medium in the presence or absence of different concentrations of phloretin. For transfection of BHK-21, COS-7 and HEK-293, plasmid DNA-Ca2PO4 precipitate is prepared and applied to the cells as described above. HEK-293 and COS-7 cells are washed once with PBS after 3 h incubation with the DNA-Ca2PO4 precipitate and subsequently cultivated in standard DMEM, while BHK-21 cells are incubated overnight with the precipitates and then cultivated in DMEM medium after being washed once with PBS. […]

T1 sequence (Q9AIU0 whole entry, added parts left off): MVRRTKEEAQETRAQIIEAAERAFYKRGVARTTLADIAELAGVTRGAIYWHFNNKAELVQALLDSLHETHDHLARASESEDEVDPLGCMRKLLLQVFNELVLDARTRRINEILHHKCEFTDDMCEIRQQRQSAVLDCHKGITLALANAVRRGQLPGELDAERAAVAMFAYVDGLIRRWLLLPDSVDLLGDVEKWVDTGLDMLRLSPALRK
T2 sequence (P04483 whole entry, added parts left off): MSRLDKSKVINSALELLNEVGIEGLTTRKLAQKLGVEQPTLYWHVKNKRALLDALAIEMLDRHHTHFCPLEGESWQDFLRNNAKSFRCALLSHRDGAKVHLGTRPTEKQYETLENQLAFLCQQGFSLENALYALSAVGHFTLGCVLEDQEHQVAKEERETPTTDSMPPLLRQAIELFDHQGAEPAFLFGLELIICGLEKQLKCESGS

Row | SMILES | PEACE regulation performance (SEAP production) [4] | compound-related cytotoxicity / cell viability [5] | also measured
1 | CC[C@H]1OC(=O)[C@H](C)[C@@H](O[C@H]2C[C@@](C)(OC)[C@@H](O)[C@H](C)O2)[C@H](C)[C@@H](O[C@@H]2O[C@H](C)C[C@H](N(C)C)[C@H]2O)[C@](C)(O)C[C@@H](C)C(=O)[C@H](C)[C@@H](O)[C@]1(C)O [EM, erythromycin] |  |  | Relative SAMY Production (%) [1]: 1.5 ± 1.8%; Relative SEAP Production (%) ([2]; CHO-PEACE8 transiently transfected with macrolide-responsive control system, EM 2 μg/mL): 102.7 ± 5.3%
2 | CN(C)[C@@H]1C(O)=C(C(N)=O)C(=O)[C@@]2(O)C(O)=C3C(=O)c4c(O)cccc4[C@@](C)(O)[C@H]3C[C@@H]12 [Tet, tetracycline] |  |  | Relative SAMY Production (%) [3]: 3.0 ± 0.4%; Relative SEAP Production (%) ([2]; CHO-PEACE8 transiently transfected with tetracycline-responsive control system, Tet 2 μg/mL): 93.2 ± 3.8%
3 | COc1ccc2cc3[n+](cc2c1OC)CCc1cc2c(cc1-3)OCO2 [berberine] | fails to control PEACE | do not reduce cell viability | 
4 | CCCCOC(=O)c1ccc(O)cc1 [butylparaben, butyl 4-hydroxybenzoate] | able to regulate but not fully repress SEAP production | do not reduce cell viability | 
5 | O=c1c(-c2ccc(O)cc2)coc2cc(O)cc(O)c12 [genistein] |  | cytotoxic | 
6 | O=C1C[C@@H](c2ccc(O)cc2)Oc2cc(O)cc(O)c21 [naringenin] |  | cytotoxic | 
